Assay results taken from PubChem BioAssay AID256 (DTP/NCI, 2004).
Values joined by “and” are separate entries in the source; they are usually repeats but may differ in a detail not shown here. Equal entries are not always repeated. Toxic doses and inconclusive results are not listed. Residues, ends and D or L forms follow the SMILES beside them. *: point of attachment. Dnp = O=[N+]([O-])c1ccc(*)c([N+](=O)[O-])c1

Test system: CD2F1 mice, L1210 leukemia ip, survival T/C
Assay: NCI In Vivo Anticancer Drug Screen. Data for tumor model L1210 Leukemia (intraperitoneal) in CD2F1 (CDF1) mice
Conditions: higher = longer survival
Procedure, shortened: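 Transplantable tumor in mice; compound-treated vs vehicle-treated groups. Read-out = treated/control ratio of the measured endpoint.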

[1] = endpoint: mean survival time, dose: 100.0 mg/kg/injection, schedule: Q01DX009 (ip), vehicle: saline with Tween-80
[2] = endpoint: mean survival time, dose: 100.0 mg/kg/injection, schedule: Q04DX003 (ip), vehicle: saline with Tween-80
[3] = endpoint: mean survival time, dose: 200.0 mg/kg/injection, schedule: Q04DX003 (ip), vehicle: saline with Tween-80
[4] = endpoint: mean survival time, dose: 400.0 mg/kg/injection, schedule: Q04DX003 (ip), vehicle: saline with Tween-80
[5] = endpoint: mean survival time, dose: 12.5 mg/kg/injection, schedule: Q01DX009 (ip), vehicle: saline with Tween-80
[6] = endpoint: mean survival time, dose: 50.0 mg/kg/injection, schedule: Q01DX009 (ip), vehicle: saline with Tween-80

Cc1ccc(C2(c3ccccc3)OC(=O)c3ccccc32)cc1 (centres undefined) was tested, and the T/C [1] was 86 % of control, the T/C [2] was 89 % of control and the T/C [3] was 87 % of control. For the same molecule, the T/C [4] was 86 % of control.

In the case of O=C(Sc1ccc([N+](=O)[O-])cc1)C(=O)Sc1ccc([N+](=O)[O-])cc1, the T/C [5] is reported as 91 % of control and the T/C [6] is reported as 98 % of control.

For CCCCCCCCCCCCCCCCCCCCC1CCCCC1, the T/C (endpoint: mean survival time, dose: 100.0 mg/kg/injection, schedule: Q01DX001 (ip), vehicle: saline with Tween-80) was 91 % of control, the T/C (endpoint: mean survival time, dose: 200.0 mg/kg/injection, schedule: Q01DX001 (ip), vehicle: saline with Tween-80) was 98 % of control and the T/C (endpoint: mean survival time, dose: 400.0 mg/kg/injection, schedule: Q01DX001 (ip), vehicle: saline with Tween-80) was 92 % of control.

For Cc1c2ccncc2c(C)c2c1oc1ccccc12, the T/C (endpoint: mean survival time, dose: 100.0 mg/kg/injection, schedule: Q01DX001 (ip), vehicle: other) was 108 % of control, the T/C (endpoint: mean survival time, dose: 200.0 mg/kg/injection, schedule: Q01DX001 (ip), vehicle: other) was 98 % of control and the T/C (endpoint: mean survival time, dose: 400.0 mg/kg/injection, schedule: Q01DX001 (ip), vehicle: other) was 95 % of control.

With CC(=O)OCC1CCC1 the T/C [1] was 95 % of control, the T/C (endpoint: mean survival time, dose: 200.0 mg/kg/injection, schedule: Q01DX009 (ip), vehicle: saline with Tween-80) was 95 % of control and the T/C (endpoint: mean survival time, dose: 400.0 mg/kg/injection, schedule: Q01DX009 (ip), vehicle: saline with Tween-80) was 103 % of control.

With NC(=O)c1n[nH]c(C2CC(O)C(CO)O2)n1 (centres undefined) the T/C (endpoint: mean survival time, dose: 12.5 mg/kg/injection, schedule: Q01DX005 (ip), vehicle: water) was 96 % of control, the T/C (endpoint: mean survival time, dose: 25.0 mg/kg/injection, schedule: Q01DX005 (ip), vehicle: water) was 91 % of control and the T/C (endpoint: mean survival time, dose: 50.0 mg/kg/injection, schedule: Q01DX005 (ip), vehicle: water) was 92 % of control. The T/C (endpoint: mean survival time, dose: 100.0 mg/kg/injection, schedule: Q01DX005 (ip), vehicle: water) was 96 % of control and the T/C (endpoint: mean survival time, dose: 200.0 mg/kg/injection, schedule: Q01DX005 (ip), vehicle: water) was 94 % of control.

O=C(NNC(=O)c1cccc(C(=O)NNC(=O)c2ccc(Cl)c(Cl)c2)n1)c1ccc(Cl)c(Cl)c1 was tested, and the T/C (endpoint: median survival time, dose: 43.2 mg/kg/injection, schedule: Q01DX005 (ip), vehicle: Klucel (hydroxypropylcellulose) (HPC)) was 110 % of control, the T/C (endpoint: median survival time, dose: 72.0 mg/kg/injection, schedule: Q01DX005 (ip), vehicle: Klucel (hydroxypropylcellulose) (HPC)) was 115 % of control and the T/C (endpoint: median survival time, dose: 120.0 mg/kg/injection, schedule: Q01DX005 (ip), vehicle: Klucel (hydroxypropylcellulose) (HPC)) was 115 % of control and 116 % of control. For the same molecule, the T/C (endpoint: median survival time, dose: 200.0 mg/kg/injection, schedule: Q01DX005 (ip), vehicle: Klucel (hydroxypropylcellulose) (HPC)) was 120 % of control and 86 % of control and the T/C (endpoint: median survival time, dose: 333.33 mg/kg/injection, schedule: Q01DX005 (ip), vehicle: Klucel (hydroxypropylcellulose) (HPC)) was 92 % of control.

In the case of CCN(CC)C(=O)c1ccc[n+](CC(=O)Nc2ccccc2)c1, the T/C (endpoint: mean survival time, dose: 25.0 mg/kg/injection, schedule: Q01DX009 (ip), vehicle: saline) is reported as 108 % of control, the T/C (endpoint: mean survival time, dose: 50.0 mg/kg/injection, schedule: Q01DX009 (ip), vehicle: saline) is reported as 105 % of control and the T/C (endpoint: mean survival time, dose: 100.0 mg/kg/injection, schedule: Q01DX009 (ip), vehicle: saline) is reported as 97 % of control. The T/C (endpoint: mean survival time, dose: 100.0 mg/kg/injection, schedule: Q04DX003 (ip), vehicle: saline) was 104 % of control.

With N#CCCCCCN=[N+]=[N-] the T/C (endpoint: mean survival time, dose: 75.0 mg/kg/injection, schedule: Q01DX001 (ip), vehicle: saline) was 98 % of control and the T/C (endpoint: mean survival time, dose: 150.0 mg/kg/injection, schedule: Q01DX001 (ip), vehicle: saline) was 101 % of control.

For NS(=O)(=O)c1cc(Cl)cc(Cl)c1O, the T/C [3] was 91 % of control and the T/C [4] was 93 % of control.

With Nc1ncnc2c1c(CO)cn2C1OC(CO)C(O)C1O (centres undefined) the T/C (endpoint: mean survival time, dose: 25.0 mg/kg/injection, schedule: Q01DX005 (ip), vehicle: distilled water + Tween-80) was 109 % of control, the T/C (endpoint: mean survival time, dose: 50.0 mg/kg/injection, schedule: Q01DX005 (ip), vehicle: distilled water + Tween-80) was 117 % of control and the T/C (endpoint: mean survival time, dose: 100.0 mg/kg/injection, schedule: Q01DX005 (ip), vehicle: distilled water + Tween-80) was 113 % of control.

In the case of CC(=O)OCC(Br)C(Br)COC(C)=O (centres undefined), the T/C [2] is reported as 100 % of control, the T/C [3] is reported as 100 % of control and the T/C [4] is reported as 97 % of control.

CC1C(C(=O)c2ccc(-c3ccccc3)cc2)N1c1ccccc1 (centres undefined) was tested, and the T/C (endpoint: mean survival time, dose: 100.0 mg/kg/injection, schedule: Q01DX001 (ip), vehicle: Klucel (hydroxypropylcellulose) (HPC)) was 94 % of control, the T/C (endpoint: mean survival time, dose: 200.0 mg/kg/injection, schedule: Q01DX001 (ip), vehicle: Klucel (hydroxypropylcellulose) (HPC)) was 101 % of control and the T/C (endpoint: mean survival time, dose: 400.0 mg/kg/injection, schedule: Q01DX001 (ip), vehicle: Klucel (hydroxypropylcellulose) (HPC)) was 86 % of control.

In the case of CN(C)CCN1C(=O)c2cccc3cc([N+](=O)[O-])cc(c23)C1=O, the T/C (endpoint: mean survival time, dose: 0.75 mg/kg/injection, schedule: Q01DX009 (ip), vehicle: saline with Tween-80) is reported as 100 % of control and 106 % of control, the T/C (endpoint: mean survival time, dose: 1.5 mg/kg/injection, schedule: Q01DX009 (ip), vehicle: saline with Tween-80) is reported as 115 % of control and 107 % of control and the T/C (endpoint: mean survival time, dose: 1.5 mg/kg/injection, schedule: Q01DX009 (ip), vehicle: saline) is reported as 102 % of control. For the same molecule, the T/C (endpoint: mean survival time, dose: 3.0 mg/kg/injection, schedule: Q01DX009 (ip), vehicle: saline with Tween-80) was 113 % of control, the T/C (endpoint: mean survival time, dose: 3.0 mg/kg/injection, schedule: Q01DX009 (ip), vehicle: saline) was 107 % of control and the T/C (endpoint: mean survival time, dose: 6.0 mg/kg/injection, schedule: Q01DX009 (ip), vehicle: saline) was 109 % of control. The T/C (endpoint: mean survival time, dose: 12.0 mg/kg/injection, schedule: Q01DX009 (ip), vehicle: saline with Tween-80) was 120 % of control, the T/C (endpoint: mean survival time, dose: 12.0 mg/kg/injection, schedule: Q01DX009 (ip), vehicle: saline) was 117 % of control and the T/C (endpoint: median survival time, dose: 0.37 mg/kg/injection, schedule: Q01DX009 (ip), vehicle: saline with Tween-80) was 100 % of control. For the same molecule, the T/C (endpoint: median survival time, dose: 0.75 mg/kg/injection, schedule: Q01DX009 (ip), vehicle: saline with Tween-80) was 95 % of control and 105 % of control, the T/C (endpoint: median survival time, dose: 1.5 mg/kg/injection, schedule: Q01DX009 (ip), vehicle: saline with Tween-80) was 116 % of control and 98 % of control and the T/C (endpoint: median survival time, dose: 3.0 mg/kg/injection, schedule: Q01DX009 (ip), vehicle: saline with Tween-80) was 104 % of control and 110 % of control. The T/C (endpoint: median survival time, dose: 6.0 mg/kg/injection, schedule: Q01DX009 (ip), vehicle: saline with Tween-80) was 122 % of control and the T/C (endpoint: median survival time, dose: 12.0 mg/kg/injection, schedule: Q01DX009 (ip), vehicle: saline with Tween-80) was 122 % of control.

With CCCCCCCC(=O)N1C=CN(C(=O)CCCCCCC)C1 the T/C (endpoint: mean survival time, dose: 75.0 mg/kg/injection, schedule: Q04DX003 (ip), vehicle: saline) was 104 % of control, the T/C (endpoint: mean survival time, dose: 150.0 mg/kg/injection, schedule: Q04DX003 (ip), vehicle: saline) was 98 % of control and the T/C (endpoint: mean survival time, dose: 300.0 mg/kg/injection, schedule: Q04DX003 (ip), vehicle: saline) was 98 % of control.

For NCC(=O)NC(CSc1ccc([N+](=O)[O-])cc1[N+](=O)[O-])C(=O)NC(CCC(=O)O)C(=O)O (centres undefined) (H-Gly-Cys(Dnp)-Glu-OH; configuration not given here), the T/C [2] was 103 % of control, the T/C [3] was 101 % of control and the T/C [4] was 98 % of control.

In the case of CC1(C)N=C(N)N=C(N)N1c1ccc(OCCCCNC(=O)c2ccc(S(=O)(=O)F)cc2)c(Cl)c1, the T/C [5] is reported as 110 % of control, the T/C (endpoint: mean survival time, dose: 25.0 mg/kg/injection, schedule: Q01DX009 (ip), vehicle: saline with Tween-80) is reported as 110 % of control and the T/C [6] is reported as 119 % of control and 109 % of control. For the same molecule, the T/C (endpoint: mean survival time, dose: 50.0 mg/kg/injection, schedule: Q04DX002 (ip), vehicle: saline with Tween-80) was 104 % of control, the T/C (endpoint: mean survival time, dose: 100.0 mg/kg/injection, schedule: Q04DX002 (ip), vehicle: saline with Tween-80) was 104 % of control and the T/C (endpoint: mean survival time, dose: 200.0 mg/kg/injection, schedule: Q04DX002 (ip), vehicle: saline with Tween-80) was 104 % of control.

With O=C(O)c1[nH]c(=O)[nH]c(=O)c1F the T/C (endpoint: mean survival time, dose: 1.25 mg/kg/injection, schedule: Q01DX009 (ip), vehicle: saline) was 101 % of control and 109 % of control, the T/C (endpoint: mean survival time, dose: 2.5 mg/kg/injection, schedule: Q01DX007 (ip), vehicle: Klucel (hydroxypropylcellulose) (HPC)) was 119 % of control and the T/C (endpoint: mean survival time, dose: 2.5 mg/kg/injection, schedule: Q01DX009 (ip), vehicle: saline) was 123 % of control. The T/C (endpoint: mean survival time, dose: 2.5 mg/kg/injection, schedule: Q03DX003 (ip), vehicle: Klucel (hydroxypropylcellulose) (HPC)) was 110 % of control, the T/C (endpoint: mean survival time, dose: 2.5 mg/kg/injection, schedule: Q04DX003 (ip), vehicle: Klucel (hydroxypropylcellulose) (HPC)) was 103 % of control and the T/C (endpoint: mean survival time, dose: 5.0 mg/kg/injection, schedule: Q01DX007 (ip), vehicle: Klucel (hydroxypropylcellulose) (HPC)) was 165 % of control. For the same molecule, the T/C (endpoint: mean survival time, dose: 5.0 mg/kg/injection, schedule: Q01DX009 (ip), vehicle: saline) was 168 % of control, the T/C (endpoint: mean survival time, dose: 5.0 mg/kg/injection, schedule: Q03DX003 (ip), vehicle: Klucel (hydroxypropylcellulose) (HPC)) was 122 % of control and the T/C (endpoint: mean survival time, dose: 5.0 mg/kg/injection, schedule: Q04DX003 (ip), vehicle: Klucel (hydroxypropylcellulose) (HPC)) was 112 % of control. The T/C (endpoint: mean survival time, dose: 10.0 mg/kg/injection, schedule: Q01DX007 (ip), vehicle: Klucel (hydroxypropylcellulose) (HPC)) was 119 % of control and the T/C (endpoint: mean survival time, dose: 10.0 mg/kg/injection, schedule: Q04DX003 (ip), vehicle: Klucel (hydroxypropylcellulose) (HPC)) was 117 % of control.
